Patent US20110112135A1, “Imidazo [1,2-A] Pyridine Compounds” (priority 2007, published 2011)

Columns and labels:
[1] = test system: ABCA1 gene; assay: Quantitative analysis of ABCA1 gene regulation in THP-1 cells (real-time PCR); assay type: cell-based, human; details: Gene regulation by LXR (Human), differentiated THP-1 cells, 18 hrs; for EC50: ABCA1 mRNA, read-out: EC50 ABCA1; for Emax: LXR agonist reference at 1.0 uM as positive control, read-out: Agonism ABCA1
Description: III. Quantitative Analysis of ABCA1 Gene Regulation in THP-1 Cells. The compounds of formula (I) effect on the regulation of the ABCA1 gene was evaluated using the following procedure. Materials and Methods Cell culture: The THP-1 monocytic cell line (ATCC #TIB-202) was obtained from American Type Culture Collection (Manassas, Va.) and cultured in RPMI 1640 medium (Gibco, Carlsbad, Calif.) containing 10% FBS, 2 mM L-glutamine, and 55 uM beta-Mercaptoethanol (BME). […] Louis, Mo.) for three days to induce differentiation into adherent macrophages. Differentiated THP-1 cells were treated with test compounds or ligands dissolved in DMSO (Sigma, D-8779) in culture medium lacking phorbal ester. […] Dose response effects were measured in duplicate, in the range of 0.001 to 30 micromolar concentrations and treated cells were incubated for an additional 18 hrs prior to RNA isolation. Unstimulated cells treated with vehicle were included as negative controls on each plate. […] L., J. Med. Chem. (2000), 45:1963-1966.). Results of antagonist analysis are expressed as % antagonism and IC50 (in μM). RNA isolation and quantitation: Total cellular RNA was isolated from treated cells cultured in 96-well plates using PrepStation 6100 (Applied Biosystems, Foster City, Calif.), according to the manufacturer's recommendations. RNA was resuspended in ribonuclease-free water and stored at -70° C. prior to analysis. RNA concentrations were quantitated with RiboGreen test procedure, #R-11490 (Molecular Probes, Eugene, Oreg.). Gene expression analysis: Gene-specific mRNA quantitation was performed by real-time PCR with the Perkin Elmer Corp. chemistry on an ABI Prism 7700 Sequence detection system (Applied Biosystems, Foster City, Calif.) according to the manufacturer's instructions. Samples (50-100 ng) of total RNA were assayed in duplicate or triplicate in 50 ul reactions using one-step RT-PCR and the standard curve method to estimate specific mRNA concentrations. Sequences of gene-specific primer and probe sets were designed with Primer Express Software (Applied Biosystems, Foster City, Calif.). […] Relative levels of ABCA1 mRNA are normalized using GAPDH mRNA or 18S rRNA probe/primer sets purchased commercially (Applied Biosystems, Foster City, Calif.). Statistics: Mean, standard deviation and statistical significance of duplicate evaluations of RNA samples were assessed using ANOVA, one-way analysis of variance using SAS analysis. Reagents: -GAPDH Probe and Primers-Taqman GAPDH Control Reagents 402869 or 4310884E 18S Ribosomal RNA-Taqman 18S Control Reagents 4308329 […] Qiagen Quantitect probe RT-PCR 204443.

[2] = target: T1, human LXRβ (Homo sapiens, UniProt P55055); assay: Ligand-binding test procedure for human LXRβ (3H T0901317 tracer, flash plates); details: biotinylated hLXRβ from E. coli extract; tracer 3H T0901317
T1 construct: biotin (biotinylated); made in house; host or cells: E. coli (crude extract)
T1 sequence (P55055 1-460): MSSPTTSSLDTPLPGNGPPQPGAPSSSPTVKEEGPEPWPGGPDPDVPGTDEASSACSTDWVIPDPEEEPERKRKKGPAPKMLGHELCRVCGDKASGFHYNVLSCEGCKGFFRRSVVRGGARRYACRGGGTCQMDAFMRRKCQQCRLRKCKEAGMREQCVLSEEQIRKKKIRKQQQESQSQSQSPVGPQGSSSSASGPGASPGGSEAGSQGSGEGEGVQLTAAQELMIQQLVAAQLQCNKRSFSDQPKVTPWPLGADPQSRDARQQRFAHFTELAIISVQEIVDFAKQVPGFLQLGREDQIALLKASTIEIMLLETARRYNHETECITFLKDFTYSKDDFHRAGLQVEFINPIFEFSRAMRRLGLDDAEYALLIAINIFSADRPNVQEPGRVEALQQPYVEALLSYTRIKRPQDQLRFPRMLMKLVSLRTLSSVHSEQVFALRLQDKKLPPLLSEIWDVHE
Summary of the method: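 Biotinylated hLXRβ from E. coli extract was captured on streptavidin flash plates (Bmax ~4000 cpm) at 4 °C overnight. Test ligand dilutions were mixed with 5 nM [3H]T0901317 tracer solution and incubated on the plates overnight at 4 °C; bound radioactivity was counted after washing.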

[3] = target: T2, human LXRα (Homo sapiens, UniProt Q13133); assay: Ligand-binding test procedure for human LXRα (3H T0901317 tracer, flash plates); details: biotinylated hLXRα from E. coli extract; tracer 3H T0901317
T2 construct: biotin (biotinylated); made in house; host or cells: E. coli (crude extract)
T2 sequence (Q13133 1-447): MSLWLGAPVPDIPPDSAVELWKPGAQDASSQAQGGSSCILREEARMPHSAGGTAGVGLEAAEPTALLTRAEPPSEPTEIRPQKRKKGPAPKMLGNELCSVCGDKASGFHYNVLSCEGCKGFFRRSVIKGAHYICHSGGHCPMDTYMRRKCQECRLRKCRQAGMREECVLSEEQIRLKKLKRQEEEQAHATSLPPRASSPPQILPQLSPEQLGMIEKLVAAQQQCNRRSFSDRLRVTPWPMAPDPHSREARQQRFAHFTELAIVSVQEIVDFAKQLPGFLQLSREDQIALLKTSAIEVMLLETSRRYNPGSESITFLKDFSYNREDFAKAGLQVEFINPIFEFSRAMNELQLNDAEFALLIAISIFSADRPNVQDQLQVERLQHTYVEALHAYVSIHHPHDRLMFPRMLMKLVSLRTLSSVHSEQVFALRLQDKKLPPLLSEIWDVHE
Summary of the method: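 Biotinylated hLXRα from E. coli extract (50 mM Tris) captured on streptavidin flash plates overnight at 4 °C. Compound dilution series mixed with 5 nM [3H]T0901317 (concentration before mixing), incubated overnight at 4 °C; wells aspirated, washed and remaining radioactivity counted.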

Structure (SMILES): CCc1nc2c(C#N)cccn2c1-c1cccc(Oc2cccc(S(=O)(=O)C(C)C)c2)c1 [Example 71, 2-ethyl-3-{3-[3-(isopropylsulfonyl)phenoxy]phenyl}imidazo[1,2-a]pyridine-8-carbonitrile]
- EC50 [1]: 1940 nM
- Emax [1]: 96%
- IC50 [2]: 37.2 nM
- IC50 [3]: 2430 nM

Structure (SMILES): CCS(=O)(=O)c1cccc(Oc2cccc(-c3c(C(C)C)nc4c(C#N)cccn34)c2)c1 [Example 73, 3-{3-[3-(ethylsulfonyl)phenoxy]phenyl}-2-isopropylimidazo[1,2-a]pyridine-8-carbonitrile]
- EC50 [1]: 2040 nM
- Emax [1]: 82%
- IC50 [2]: 36.5 nM
- IC50 [3]: 1880 nM

Structure (SMILES): CC(C)c1nc2c(C#N)cccn2c1-c1cccc(Oc2cccc(S(=O)(=O)C(C)C)c2)c1 [Example 74, 2-isopropyl-3-{3-[3-(isopropylsulfonyl)phenoxy]phenyl}imidazo[1,2-a]pyridine-8-carbonitrile]
- EC50 [1]: 560 nM
- Emax [1]: 97%
- IC50 [2]: 24 nM
- IC50 [3]: 1260 nM

Structure (SMILES): CC(C)(C)c1nc2c(C(F)(F)F)cccn2c1-c1cccc(Oc2cccc(S(=O)(=O)CCCO)c2)c1 [Example 78, 3-[(3-{3-[2-tert-butyl-8-(trifluoromethyl)imidazo[1,2-a]pyridin-3-yl]phenoxy}phenyl)sulfonyl]propan-1-ol]
- EC50 [1]: 1460 nM
- Emax [1]: 92%
- IC50 [2]: 9 nM
- IC50 [3]: 167 nM

Structure (SMILES): CCS(=O)(=O)c1cccc(Oc2cccc(-c3c(C(C)(C)C)nc4c(C#N)cccn34)c2)c1 [Example 79, 2-tert-butyl-3-{3-[3-(ethylsulfonyl)phenoxy]phenyl}imidazo[1,2-a]pyridine-8-carbonitrile]
- EC50 [1]: 285 nM
- Emax [1]: 60%
- IC50 [2]: 23.7 nM
- IC50 [3]: 745 nM

Structure (SMILES): CC(C)c1nc2c(C#N)cccn2c1-c1cc(Oc2cccc(S(C)(=O)=O)c2)ccc1Cl [Example 82, 3-{2-chloro-5-[3-(methylsulfonyl)phenoxy]phenyl}-2-isopropylimidazo[1,2-a]pyridine-8-carbonitrile]
- EC50 [1]: 290 nM
- Emax [1]: 70%
- IC50 [2]: 11.5 nM
- IC50 [3]: 309 nM

Structure (SMILES): CCS(=O)(=O)c1cccc(Oc2ccc(Cl)c(-c3c(C(C)C)nc4c(C#N)cccn34)c2)c1 [Example 83, 3-{2-chloro-5-[3-(ethylsulfonyl)phenoxy]phenyl}-2-isopropylimidazo[1,2-a]pyridine-8-carbonitrile]
- EC50 [1]: 260 nM
- Emax [1]: 76%
- IC50 [2]: 6.8 nM
- IC50 [3]: 218 nM

Structure (SMILES): CC(C)c1nc2c(C#N)cccn2c1-c1cc(Oc2cccc(S(=O)(=O)C(C)C)c2)ccc1Cl [Example 84, 3-{2-chloro-5-[3-(isopropylsulfonyl)phenoxy]phenyl}-2-isopropylimidazo[1,2-a]pyridine-8-carbonitrile]
- EC50 [1]: 375 nM
- Emax [1]: 70%
- IC50 [2]: 8.5 nM
- IC50 [3]: 276 nM

Structure (SMILES): CC(C)c1nc2c(C(F)(F)F)cccn2c1-c1ccc(-c2ccc(S(=O)(=O)C(C)C)cc2)cc1 [Example 91, 2-isopropyl-3-(4′-(isopropylsulfonyl)biphenyl-4-yl)-8-(trifluoromethyl)imidazo[1,2-a]pyridine]
- EC50 [1]: 2780 nM
- Emax [1]: 33%
- IC50 [2]: > 1000 nM
- IC50 [3]: > 1000 nM

Structure (SMILES): CC(C)c1nc2c(C(F)(F)F)cccn2c1-c1ccc(Oc2cccc(S(C)(=O)=O)c2)cc1 [Example 119, 2-(1-methylethyl)-3-{4-[3-(methylsulfonyl)phenoxy]phenyl}-8-(trifluoromethyl)imidazo[1,2-a]pyridine]
- EC50 [1]: 620 nM
- Emax [1]: 59%
- IC50 [2]: 179 nM
- IC50 [3]: > 1000 nM

Structure (SMILES): CCS(=O)(=O)c1cccc(Oc2ccc(-c3c(C(C)C)nc4c(C(F)(F)F)cccn34)cc2)c1 [Example 120, 3-{4-[3-(ethylsulfonyl)phenoxy]phenyl}-2-(1-methylethyl)-8-(trifluoromethyl)imidazo[1,2-a]pyridine]
- EC50 [1]: 590 nM
- Emax [1]: 53%
- IC50 [2]: 117 nM
- IC50 [3]: > 1000 nM

Structure (SMILES): COc1ccccc1-c1nc2c(C(F)(F)F)cccn2c1-c1ccc(Oc2cccc(S(C)(=O)=O)c2)cc1 [Example 126, 2-(2-methoxyphenyl)-3-{4-[3-(methylsulfonyl)phenoxy]phenyl}-8-(trifluoromethyl)imidazo[1,2-a]pyridine]
- EC50 [1]: 25 nM
- Emax [1]: 30%
- IC50 [2]: 14 nM
- IC50 [3]: 290 nM

Structure (SMILES): CCCCOCc1nc2c(C(F)(F)F)cccn2c1-c1ccc(Oc2cccc(S(C)(=O)=O)c2)cc1 [Example 128, 2-(butoxymethyl)-3-{4-[3-(methylsulfonyl)phenoxy]phenyl}-8-(trifluoromethyl)imidazo[1,2-a]pyridine]
- EC50 [1]: 40 nM
- Emax [1]: 76%
- IC50 [2]: 28 nM
- IC50 [3]: 430 nM

Structure (SMILES): CS(=O)(=O)c1cccc(Oc2cccc(-c3c(Cn4ccnc4)nc4c(C(F)(F)F)cccn34)c2)c1 [Example 129, 2-(1H-imidazol-1-ylmethyl)-3-{3-[3-(methylsulfonyl)phenoxy]phenyl}-8-(trifluoromethyl)imidazo[1,2-a]pyridine]
- EC50 [1]: 135 nM
- Emax [1]: 103%
- IC50 [2]: 30 nM
- IC50 [3]: 370 nM
